From patent US11339161B2, “Triazolo pyridines as modulators of gamma-secretase” (Boehringer Ingelheim International GmbH, priority 2017, dated 2022) come the findings set out here.

The target in one experiment is FGFR2 (Homo sapiens, UniProt P21802). Put plainly: Z'-LYTE SelectScreen biochemical kinase assay FGFR2. From the text: (§1) Thermo Fisher Scientific SelectScreen™ Biochemical Kinase Profiling Service Z′-LYTE™ Screening Protocol and Assay Conditions Assay Theory
(§2) The […] biochemical assay employs a fluorescence-based, coupled-enzyme format and is based on the differential sensitivity of phosphorylated and non-phosphorylated peptides to proteolytic cleavage. The peptide substrate is labeled with two fluorophores—one at each end—that make up a FRET pair. In the primary reaction, the kinase transfers the gamma-phosphate of ATP to a single tyrosine, serine or threonine residue in a synthetic FRET-peptide. In the secondary reaction, a site-specific protease recognizes and cleaves non-phosphorylated FRET-peptides. Phosphorylation of FRET-peptides suppresses cleavage by the Development Reagent. Cleavage disrupts FRET between the donor (i.e., coumarin) and acceptor (i.e., fluorescein) fluorophores on the FRET-peptide, whereas uncleaved, phosphorylated FRET-peptides maintain FRET. A ratiometric method, which calculates the ratio (Emission Ratio=Coumarin emission (445 nm)/Fluorescein emission (520 nm)) of donor emission to acceptor emission after excitation of the donor fluorophore at 400 nm, is used to quantitate reaction progress, as shown in the equation below. A significant benefit of this ratiometric method for quantitating reaction progress is the elimination of well-to-well variations in FRET-peptide concentration and signal intensities. As a result, the assay yields very high Z′-factor values (>0.7) at a low percent phosphorylation. Both cleaved and uncleaved FRET-peptides contribute to the fluorescence signals and therefore to the Emission Ratio. The extent of phosphorylation of the FRET-peptide can be calculated from the Emission Ratio. The Emission Ratio will remain low if the FRET-peptide is phosphorylated (i.e., no kinase inhibition) and will be high if the FRET-peptide is non-phosphorylated (i.e., kinase inhibition).
(§3) The Test Compounds are screened in 1% DMSO (final) in the well. For 10 point titrations, 3-fold serial dilutions are conducted from the starting concentration of the customer's choosing.
(§4) All Peptide/Kinase Mixtures are diluted to a 2× working concentration in the appropriate Kinase Buffer (see section Kinase Specific Assay Conditions for a complete description).
(§5) All ATP Solutions are diluted to a 4× working concentration in Kinase Buffer (50 mM HEPES pH 7.5, 0.01% BRIJ-35, 10 mM MgCl2, 1 mM EGTA). ATP Km apparent is previously determined using a Z″-LYTE assay.
(§6) The Development Reagent is diluted in Development Buffer (see section Kinase-Specific Assay Conditions—Direct and Cascade for a complete description).
(§7) Bar-coded Corning, low volume NBS, black 384-well plate (Corning Cat. #4514) • 1. 100 nL—100× Test Compound in 100% DMSO • 2. 2.4 μL—Kinase buffer • 3. 5 μL—2× Peptide/Kinase Mixture • 4. 2.5 μL—4×ATP Solution • 5. 30—second plate shake • 6. 60—minute Kinase Reaction incubation at room temperature • 7. 5 μL—Development Reagent Solution • 8. 30—second plate shake • 9. 60—minute Development Reaction incubation at room temperature • 10. Read on fluorescence plate reader and analyze the data Z′-LYTE Assay Controls
(§8) SelectScreen Kinase Profiling Service uses XLfit from IDBS. The dose response curve is curve fit to model number 205 (sigmoidal dose-response model).
The 2×FGFR2/Tyr 04 mixture is prepared in 50 mM HEPES pH 7.5, 0.01% BRIJ-35, 10 mM MgCl2, 4 mM MnCl2, 1 mM EGTA, 2 mM DTT. The final 10 μL Kinase Reaction consists of 0.19-1.99 ng FGFR2 and 2 μM Tyr 04 in 50 mM HEPES pH 7.5, 0.01% BRIJ-35, 10 mM MgCl2, 2 mM MnCl2, 1 mM EGTA, 1 mM DTT. After the 1 hour Kinase Reaction incubation, 5 μL of a 1:64 dilution of Development Reagent B is added.

The target in a further experiment is FLT4 (VEGFR3) (Homo sapiens, UniProt P35916). Put plainly: Z'-LYTE SelectScreen biochemical kinase assay FLT4 (VEGFR3).
FLT4 (VEGFR3), sequence (P35916 25-1363): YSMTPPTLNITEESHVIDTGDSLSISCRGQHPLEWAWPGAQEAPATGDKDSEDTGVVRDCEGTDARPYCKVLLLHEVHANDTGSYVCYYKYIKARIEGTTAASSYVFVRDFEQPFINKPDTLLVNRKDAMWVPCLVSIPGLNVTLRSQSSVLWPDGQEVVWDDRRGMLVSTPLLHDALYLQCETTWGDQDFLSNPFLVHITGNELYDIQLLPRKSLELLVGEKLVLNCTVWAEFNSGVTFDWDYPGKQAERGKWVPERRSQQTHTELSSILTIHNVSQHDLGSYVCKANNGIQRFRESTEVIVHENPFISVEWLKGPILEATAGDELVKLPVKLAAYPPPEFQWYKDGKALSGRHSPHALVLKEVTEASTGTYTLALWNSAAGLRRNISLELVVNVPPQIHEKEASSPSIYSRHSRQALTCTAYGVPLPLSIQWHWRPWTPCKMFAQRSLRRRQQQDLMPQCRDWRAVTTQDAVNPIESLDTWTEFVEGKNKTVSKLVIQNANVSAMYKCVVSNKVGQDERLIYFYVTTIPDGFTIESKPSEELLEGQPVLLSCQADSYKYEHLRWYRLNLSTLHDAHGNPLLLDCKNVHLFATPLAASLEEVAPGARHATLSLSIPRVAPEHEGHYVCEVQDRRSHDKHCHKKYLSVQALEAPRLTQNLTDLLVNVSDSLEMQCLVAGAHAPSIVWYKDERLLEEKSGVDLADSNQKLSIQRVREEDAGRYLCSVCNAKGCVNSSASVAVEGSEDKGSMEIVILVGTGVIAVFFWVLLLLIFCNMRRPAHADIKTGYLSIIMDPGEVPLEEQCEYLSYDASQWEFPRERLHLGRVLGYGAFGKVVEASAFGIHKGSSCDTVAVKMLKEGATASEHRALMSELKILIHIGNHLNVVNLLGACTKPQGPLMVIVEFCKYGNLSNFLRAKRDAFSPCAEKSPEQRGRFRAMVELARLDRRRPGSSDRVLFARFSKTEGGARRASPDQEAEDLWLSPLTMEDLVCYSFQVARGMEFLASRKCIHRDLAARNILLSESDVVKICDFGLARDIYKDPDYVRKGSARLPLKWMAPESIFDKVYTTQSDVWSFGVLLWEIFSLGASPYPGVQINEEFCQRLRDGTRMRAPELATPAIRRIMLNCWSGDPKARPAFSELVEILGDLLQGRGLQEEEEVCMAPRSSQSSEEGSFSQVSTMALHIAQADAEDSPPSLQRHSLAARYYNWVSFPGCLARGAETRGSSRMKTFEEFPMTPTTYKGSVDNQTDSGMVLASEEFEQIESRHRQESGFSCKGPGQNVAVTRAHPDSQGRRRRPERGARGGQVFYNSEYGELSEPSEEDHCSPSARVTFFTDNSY
Source text: as §1, §2, §3, §4, §5, §6, §7, §8
The 2×FLT4 (VEGFR3)/Tyr 04 mixture is prepared in 50 mM HEPES pH 7.5, 0.01% BRIJ-35, 10 mM MgCl2, 4 mM MnCl2, 1 mM EGTA, 2 mM DTT. The final 10 μL Kinase Reaction consists of 2-10.5 ng FLT4 (VEGFR3) and 2 μM Tyr 04 in 50 mM HEPES pH 7.5, 0.01% BRIJ-35, 10 mM MgCl2, 2 mM MnCl2, 1 mM EGTA, 1 mM DTT. After the 1 hour Kinase Reaction incubation, 5 μL of a 1:64 dilution of Development Reagent B is added.

A further experiment addresses KDR (VEGFR2) (Homo sapiens, UniProt P35968). Put plainly: Z'-LYTE SelectScreen biochemical kinase assay KDR (VEGFR2).
Source text: as §1, §2, §3, §4, §5, §6, §7, §8
The 2×KDR (VEGFR2)/Tyr 01 mixture is prepared in 50 mM HEPES pH 7.5, 0.01% BRIJ-35, 10 mM MgCl2, 1 mM EGTA. The final 10 μL Kinase Reaction consists of 1-30 ng KDR (VEGFR2) and 2 μM Tyr 01 in 50 mM HEPES pH 7.5, 0.01% BRIJ-35, 10 mM MgCl2, 1 mM EGTA. After the 1 hour Kinase Reaction incubation, 5 μL of a 1:256 dilution of Development Reagent B is added.

The next experiment deals with LYN B (Homo sapiens, UniProt P07948). In words: Z'-LYTE SelectScreen biochemical kinase assay LYN B.
LYN B, sequence (P07948 1-491 isoform P07948-2): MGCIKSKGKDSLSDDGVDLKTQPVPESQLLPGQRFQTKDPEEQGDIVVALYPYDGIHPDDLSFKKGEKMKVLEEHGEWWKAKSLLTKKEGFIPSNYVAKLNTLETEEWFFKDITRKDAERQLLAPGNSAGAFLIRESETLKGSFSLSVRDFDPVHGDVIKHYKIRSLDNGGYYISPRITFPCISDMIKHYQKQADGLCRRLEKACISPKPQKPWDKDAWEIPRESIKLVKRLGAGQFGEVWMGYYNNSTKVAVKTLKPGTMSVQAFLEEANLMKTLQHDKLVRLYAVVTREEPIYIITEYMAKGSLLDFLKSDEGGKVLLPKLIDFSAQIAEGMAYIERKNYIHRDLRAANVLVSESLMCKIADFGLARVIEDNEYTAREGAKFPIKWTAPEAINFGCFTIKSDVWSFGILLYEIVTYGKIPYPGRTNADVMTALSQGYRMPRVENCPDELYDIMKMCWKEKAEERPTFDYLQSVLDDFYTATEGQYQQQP
Source text: as §1, §2, §3, §4, §5, §6, §7, §8
The 2×LYN B/Tyr 02 mixture is prepared in 50 mM HEPES pH 7.5, 0.01% BRIJ-35, 10 mM MgCl2, 1 mM EGTA. The final 10 μL Kinase Reaction consists of 0.85-14.8 ng LYN B and 2 μM Tyr 02 in 50 mM HEPES pH 7.5, 0.01% BRIJ-35, 10 mM MgCl2, 1 mM EGTA. After the 1 hour Kinase Reaction incubation, 5 μL of a 1:128 dilution of Development Reagent A is added.

In another experiment the test system is panel of 15 kinases. In words: Z'-LYTE SelectScreen kinase panel: number of kinases with <40% inhibition. It counts as biochemical. As to conditions: of 15 kinases tested; 10 μmolar compound; ATP at Km app.
The next experiment relates to kinases. In words: Z'-LYTE SelectScreen kinase panel: number of kinases with <40% inhibition out of 15 tested. Conditions: 10 μmolar (10000 nM) compound; [ATP] Km app; 15 kinases tested. It counts as biochemical.
The mark [1] stands for this setting: 10 μmolar compound concentration, ATP at Km app, read-out: FGFR2 inhibition.
Where [2] appears, read: read-out: % Inhibition mean FGFR2.
The mark [3] stands for this setting: 10 μmolar compound concentration, ATP at Km app, read-out: FLT4 (VEGFR3) inhibition.
[4] abbreviates: read-out: % Inhibition mean FLT4 (VEGFR3).
Where [5] appears, read: 10 μmolar compound concentration, ATP at Km app, read-out: KDR (VEGFR2) inhibition.
The mark [6] stands for this setting: read-out: % Inhibition mean KDR (VEGFR2).
Setting [7] is: 10 μmolar compound concentration, ATP at Km app, read-out: LYN B inhibition.
Where [8] appears, read: read-out: % Inhibition mean LYN B.

Broadly, the inhibition is the drop in the measured response relative to a control, in per cent.

Read-outs that look alike come from different tables or passages of the source.

FGFR2, sequence (P21802 22-821): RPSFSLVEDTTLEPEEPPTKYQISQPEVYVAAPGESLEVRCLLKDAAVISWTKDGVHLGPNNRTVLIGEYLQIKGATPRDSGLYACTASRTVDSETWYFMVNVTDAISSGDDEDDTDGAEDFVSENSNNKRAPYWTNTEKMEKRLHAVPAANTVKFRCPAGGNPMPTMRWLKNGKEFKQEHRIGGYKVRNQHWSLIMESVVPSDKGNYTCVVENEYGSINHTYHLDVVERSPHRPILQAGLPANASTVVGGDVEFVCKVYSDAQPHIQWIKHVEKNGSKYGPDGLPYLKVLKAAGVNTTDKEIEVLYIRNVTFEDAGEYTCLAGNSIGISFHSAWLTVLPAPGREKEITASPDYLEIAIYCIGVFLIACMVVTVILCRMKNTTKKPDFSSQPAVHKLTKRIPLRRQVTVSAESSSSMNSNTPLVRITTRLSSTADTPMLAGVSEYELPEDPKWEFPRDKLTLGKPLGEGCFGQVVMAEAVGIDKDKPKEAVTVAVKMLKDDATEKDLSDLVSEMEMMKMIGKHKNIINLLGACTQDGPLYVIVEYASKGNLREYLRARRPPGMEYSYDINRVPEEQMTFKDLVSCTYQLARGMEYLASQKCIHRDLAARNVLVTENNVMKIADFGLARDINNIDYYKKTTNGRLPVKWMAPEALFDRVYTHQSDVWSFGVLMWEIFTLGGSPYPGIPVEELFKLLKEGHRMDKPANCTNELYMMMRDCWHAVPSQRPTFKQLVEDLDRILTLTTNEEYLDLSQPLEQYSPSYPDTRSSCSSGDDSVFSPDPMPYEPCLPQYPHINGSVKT
KDR (VEGFR2), sequence (P35968 20-1356): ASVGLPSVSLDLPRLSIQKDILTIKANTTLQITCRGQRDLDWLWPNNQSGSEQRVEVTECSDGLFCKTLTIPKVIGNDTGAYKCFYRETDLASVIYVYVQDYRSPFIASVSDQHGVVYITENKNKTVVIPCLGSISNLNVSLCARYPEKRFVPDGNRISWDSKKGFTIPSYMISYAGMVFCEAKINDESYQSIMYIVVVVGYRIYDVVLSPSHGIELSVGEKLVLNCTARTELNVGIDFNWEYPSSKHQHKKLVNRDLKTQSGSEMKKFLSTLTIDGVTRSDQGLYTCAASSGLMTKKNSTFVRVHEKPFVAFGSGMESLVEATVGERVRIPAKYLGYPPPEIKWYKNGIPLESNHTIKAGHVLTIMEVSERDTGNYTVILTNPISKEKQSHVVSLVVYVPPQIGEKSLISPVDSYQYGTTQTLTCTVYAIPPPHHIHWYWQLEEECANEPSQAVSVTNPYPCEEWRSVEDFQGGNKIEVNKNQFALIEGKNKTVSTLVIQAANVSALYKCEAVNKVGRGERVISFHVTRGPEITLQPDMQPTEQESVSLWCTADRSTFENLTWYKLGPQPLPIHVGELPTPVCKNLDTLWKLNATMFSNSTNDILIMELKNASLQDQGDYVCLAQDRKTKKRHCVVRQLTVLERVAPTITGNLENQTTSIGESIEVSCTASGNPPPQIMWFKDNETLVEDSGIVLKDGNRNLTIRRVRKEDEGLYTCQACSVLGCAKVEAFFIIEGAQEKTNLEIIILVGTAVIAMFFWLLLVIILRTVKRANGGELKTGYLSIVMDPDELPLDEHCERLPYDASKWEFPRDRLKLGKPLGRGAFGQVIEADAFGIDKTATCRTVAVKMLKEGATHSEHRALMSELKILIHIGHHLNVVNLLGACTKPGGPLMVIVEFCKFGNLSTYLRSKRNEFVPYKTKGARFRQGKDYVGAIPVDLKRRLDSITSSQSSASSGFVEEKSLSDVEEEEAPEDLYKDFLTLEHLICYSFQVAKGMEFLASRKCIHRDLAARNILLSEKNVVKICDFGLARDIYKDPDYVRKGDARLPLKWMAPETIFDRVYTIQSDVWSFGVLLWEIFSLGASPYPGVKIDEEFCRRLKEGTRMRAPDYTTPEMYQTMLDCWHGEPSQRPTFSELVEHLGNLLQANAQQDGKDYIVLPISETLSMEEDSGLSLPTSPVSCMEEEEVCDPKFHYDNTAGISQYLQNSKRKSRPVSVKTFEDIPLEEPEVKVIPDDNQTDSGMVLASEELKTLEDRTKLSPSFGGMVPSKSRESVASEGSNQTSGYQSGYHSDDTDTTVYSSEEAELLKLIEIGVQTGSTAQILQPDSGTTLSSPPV

In the case of `CCn1ncc2c1CCC(Nc1nc3c(-c4cncc(Cl)c4)cccn3n1)C2` (stereo not drawn) [Example 73, [8-(5-Chloro-pyridin-3-yl)-[1,2,4]triazolo[1,5-a]pyridine-2-yl]-(1-ethyl-4,5,6,7-tetrahydro-1H-indazol-5-yl)-amine], the inhibition at 10 µM is less than 40% on FGFR2 (setting [1]); 26% on FGFR2 (setting [2]); 40 to 80% on FLT4 (VEGFR3) (setting [3]); 50% at FLT4 (VEGFR3) (setting [4]); less than 40% on KDR (VEGFR2) (setting [5]); 8% on KDR (VEGFR2) (setting [6]). Moreover, the inhibition at 10 µM at LYN B (setting [7]) is less than 40%; on LYN B (setting [8]), 31%. Further, the “No. of kinases with <40% inhibition” value in the experiment with panel of 15 kinases was 8/15.
`CCn1ncc2c1CCC(Nc1nc3c(-c4cnccc4OC)cccn3n1)C2` (stereo not drawn) [Example 68, (1-Ethyl-4,5,6,7-tetrahydro-1H-indazol-5-yl)-[8-(4-methoxy-pyridin-3-yl)-[1,2,4]triazolo[1,5-a]pyridine-2-yl]-amine]: the inhibition at 10 µM at FGFR2 (setting [1]) is less than 40%; on FGFR2 (setting [2]) it was 28%; on FLT4 (VEGFR3) (setting [3]), 40 to 80%; on FLT4 (VEGFR3) (setting [4]), 52%; on KDR (VEGFR2) (setting [5]), less than 40%; on KDR (VEGFR2) (setting [6]), 18%. Moreover, the inhibition at 10 µM at LYN B (setting [7]) is less than 40%; at LYN B (setting [8]), 22%. The “No. of kinases with <40% inhibition” value in the experiment with panel of 15 kinases is reported as 11/15.
Turning to `CCn1ncc2c1CC[C@H](Nc1nc3c(-c4ccc(F)c(Cl)c4)cccn3n1)C2` [Example S-61, (S)-[8-(3-Chloro-4-fluoro-phenyl)-[1,2,4]triazolo[1,5-a]pyridine-2-yl]-(1-ethyl-4,5,6,7-tetrahydro-1H-indazol-5-yl)-amine], the inhibition at 10 µM was less than 40% at FGFR2 (setting [1]); 13% on FGFR2 (setting [2]); less than 40% on FLT4 (VEGFR3) (setting [3]); 24% at FLT4 (VEGFR3) (setting [4]); less than 40% at KDR (VEGFR2) (setting [5]); -15% on KDR (VEGFR2) (setting [6]). For the same molecule, the values for the inhibition at 10 µM on LYN B (setting [7]) and at LYN B (setting [8]) were less than 40% and 8%, respectively. In addition, the “No. of kinases with <40% inhibition” value in the experiment on panel of 15 kinases is 15/15.
`CCn1ncc2c1CCC(Nc1nc3c(-c4cccnc4OC)cccn3n1)C2` (stereo not drawn) [Example 69, (1-Ethyl-4,5,6,7-tetrahydro-1H-indazol-5-yl)-[8-(2-methoxy-pyridin-3-yl)-[1,2,4]triazolo[1,5-a]pyridine-2-yl]-amine]: the inhibition at 10 µM at FGFR2 (setting [1]) was less than 40%; on FGFR2 (setting [2]), 1%; on FLT4 (VEGFR3) (setting [3]), less than 40%; at FLT4 (VEGFR3) (setting [4]), 16%; at KDR (VEGFR2) (setting [5]) it was less than 40%; on KDR (VEGFR2) (setting [6]), 8%. In addition, the inhibition at 10 µM is less than 40% at LYN B (setting [7]) and 15% at LYN B (setting [8]). Further, the “No. of kinases with <40% inhibition” value in the experiment on panel of 15 kinases was 15/15.
As to `CCn1ncc2c1CCC(Nc1nc3c(-c4cccc(Cl)c4)cccn3n1)C2` (stereo not drawn) [Example 59, [8-(3-Chloro-phenyl)-[1,2,4]triazolo[1,5-a]pyridine-2-yl]-(1-ethyl-4,5,6,7-tetrahydro-1H-indazol-5-yl)-amine], the inhibition at 10 µM is less than 40% on FGFR2 (setting [1]); 11% at FGFR2 (setting [2]); less than 40% on FLT4 (VEGFR3) (setting [3]); 39% at FLT4 (VEGFR3) (setting [4]); less than 40% on KDR (VEGFR2) (setting [5]); -8% at KDR (VEGFR2) (setting [6]). Also, the inhibition at 10 µM was less than 40% at LYN B (setting [7]) and 22% on LYN B (setting [8]). Also, the “No. of kinases with <40% inhibition” value in the experiment on panel of 15 kinases is given as 13/15.
Take `CCCCCn1ncc2c1CCC(Nc1nc3c(-c4ccc(F)cc4C)cccn3n1)C2` (stereo not drawn) [Example 47, [8-(4-fluoro-2-methyl-phenyl)-[1,2,4]triazolo[1,5-a]pyridine-2-yl]-(1-pentyl-4,5,6,7-tetrahydro-1H-indazol-5-yl)-amine]: the inhibition at 10 µM at FGFR2 (setting [1]) is less than 40%; on FGFR2 (setting [2]), 21%; on FLT4 (VEGFR3) (setting [3]), less than 40%; at FLT4 (VEGFR3) (setting [4]), 13%; on KDR (VEGFR2) (setting [5]), less than 40%; on KDR (VEGFR2) (setting [6]), 6%. In addition, the results for the inhibition at 10 µM on LYN B (setting [7]) and at LYN B (setting [8]) were less than 40% and 21%, respectively. Moreover, in the experiment with kinases, the “No. of kinases with <40% inhibition” value is recorded as 15/15.
As for `CCc1nn(C)c2c1CCC(Nc1nc3c(-c4ccc(F)cc4C)cccn3n1)C2` (stereo not drawn) [Example 54, (3-Ethyl-1-methyl-4,5,6,7-tetrahydro-1H-indazol-6-yl)-[8-(4-fluoro-2-methyl-phenyl)-[1,2,4]triazolo[1,5-a]pyridine-2-yl]-amine], the inhibition at 10 µM on FGFR2 (setting [1]) is less than 40%; on FGFR2 (setting [2]) it was 25%; on FLT4 (VEGFR3) (setting [3]), less than 40%; on FLT4 (VEGFR3) (setting [4]) it was 38%; at KDR (VEGFR2) (setting [5]) it was less than 40%; on KDR (VEGFR2) (setting [6]), 5%. Moreover, the inhibition at 10 µM at LYN B (setting [7]) is less than 40%; at LYN B (setting [8]) it was 15%. Further, the “No. of kinases with <40% inhibition” value in the experiment on kinases was 15/15.
On to `CCn1ncc2c1CCC(Nc1nc3c(-c4ccc(F)cc4)cccn3n1)C2` (stereo not drawn) [Example 55, (1-Ethyl-4,5,6,7-tetrahydro-1H-indazol-5-yl)-[8-(4-fluoro-phenyl)-[1,2,4]triazolo[1,5-a]pyridine-2-yl]-amine], for which the inhibition at 10 µM is less than 40% on FGFR2 (setting [1]); 13% at FGFR2 (setting [2]); 40 to 80% on FLT4 (VEGFR3) (setting [3]); 42% at FLT4 (VEGFR3) (setting [4]); less than 40% on KDR (VEGFR2) (setting [5]); 12% at KDR (VEGFR2) (setting [6]). Besides, the inhibition at 10 µM on LYN B (setting [7]) was less than 40%; at LYN B (setting [8]) it was 27%. Also, in the experiment with kinases, the “No. of kinases with <40% inhibition” value is 13/15.
